The conditions of data set [1]: cited from earlier work; for t1/2: aqueous condition.
The subject of data set [2] is murine tumor models (HeLa S3, sarcoma180, B-16, Colon 26, leukemia P388). The settings on record: cited from earlier work.
Data set [3] deals with Gram-positive and Gram-negative bacteria. To be noted: cited from earlier work.
A further data set deals with fungi. To be noted: cited from earlier work.
A further data set concerns DNA. To be noted: in the presence of thiol agents as cofactors; cited from earlier work.
The test system of another data set is S. atroolivaceus. Briefly: Antibiotic sensitivity (growth inhibition) of S. atroolivaceus. The settings on record: for complete inhibition of growth: concentration giving complete inhibition of growth of S. atroolivaceus; for sensitivity of S. atroolivaceus: result in words. The data set is classed as cell-based, Streptomyces atroolivaceus. As for the experimental part: S. atroolivaceus grows very well at 30° C.; it doesn't grow at temperature beyond 35° C. […] Thus, E. coli-Streptornyces shuttle vectors pOJ260 (suicide vector, Am^R) and pKC1139 (self-replicating vector, Am^R) were chosen to make the gene-disruption constructs pYC12 and pYC20, respectively. The concentration of antibiotic (Am) for selection of transformants/exconjugates is 50 μg/ml.

Molecules are shown by their SMILES. Read-outs that look alike come from different tables or passages of the source.

Regarding `C/C1=C\[C@@H](O)C(=O)/C=C/C=C\c2csc(n2)[C@@H](C)NC(=O)C[C@@]2(CC1)[S+]([O-])SC(=O)[C@]2(C)O` (stereo partly shown) [Lnm, Leinamycin], the t1/2 in data set [1] (pH 6) is above 20 h; in data set [1] (pH 7) it was 8 h; in data set [1] (pH 8), below 1 h. The “t1/2 in the presence of a thiol” value in data set [1] (in the presence of a thiol, compared with aqueous condition alone) was “even shorter t1/2”. For the same compound, in data set [2] (murine models inoculated with tumors resistant to cisplatin, doxorubicin, mitomycin or cyclophosphamide), the “activity against drug-resistant tumors” value is “active”. In addition, in data set [2] (murine tumor models in vivo, including HeLa S3, sarcoma180, B-16, Colon 26, leukemia P388), the antitumor activity entry was “potent antitumor activity”. Moreover, the antimicrobial activity entry in data set [3] is reported as “broad spectrum of antimicrobial activity”; in the data set with fungi, “not against fungi”. The DNA cleavage entry with DNA was “single-strand scission of DNA”.

Turning to `CN[C@@H]1[C@@H](O[C@H]2O[C@H](CO)[C@@H](N)[C@H](O)[C@H]2O)OC2C[C@@H](N)[C@@H](O[C@H]3[C@H](O)[C@@H](O)[C@H](N)C[C@@H]3N)OC2[C@@H]1O` (stereo partly shown) [apramycin], in the data set with S. atroolivaceus, the “complete inhibition of growth” value amounted to 10 µg/mL and the “sensitivity of S. atroolivaceus” value is “sensitive”.

Turning to `C=C(NC(=O)C(=C)NC(=O)c1csc(C2=N[C@@H]3c4csc(n4)[C@H]4NC(=O)c5csc(n5)[C@H]([C@](C)(O)[C@@H](C)O)NC(=O)[C@H]5CSC(=N5)/C(=C/C)NC(=O)[C@H]([C@@H](C)O)NC(=O)c5csc(n5)[C@]3(CC2)NC(=O)[C@H](C)NC(=O)C(=C)NC(=O)[C@H](C)NC(=O)[C@H]([C@@H](C)CC)N[C@@H]2C=Cc3c([C@H](C)O)cc(nc3[C@H]2O)C(=O)O[C@@H]4C)n1)C(N)=O` [thiostrepton], in the data set on S. atroolivaceus, the “complete inhibition of growth” value stood at 3 µg/mL and the “sensitivity of S. atroolivaceus” value was “sensitive”.
